Experimental data as given in patent US10059741B2 (priority 2015, dated 2018).
Values joined by “and” are separate entries in the source; they are usually repeats but may differ in a detail not shown here. Identical values can stand only once. Like-named read-outs stand apart in the source and are kept apart here. Bridge positions count the residues as written; N and C are the ends. Square brackets hold non-standard residues; d marks the D form. Peptide text beside a SMILES is read from it. R8 = C=CCCCCCC[C@@](C)(N)C(=O)O; S5 = C=CCCC[C@](C)(N)C(=O)O; Nle = CCCC[C@H](N)C(=O)O; Aib = CC(C)(N)C(=O)O

Columns and labels:
H3N2 Perth/16/2009 [1] = experiment: microbe, parasite or virus in culture; format: cell-based, influenza A virus
H1N1 California/07/2009 [2] = experiment: microbe, parasite or virus in culture; format: cell-based, influenza A virus
H1N1 California/07/2009 [3] = experiment: microbe, parasite or virus in culture; format: cell-based, influenza A virus; remark: listed apart in the source
H3N2 Perth/16/2009 [4] = experiment: microbe, parasite or virus in culture; format: cell-based, influenza A virus; remark: listed apart in the source
in vitro = details: dog
[5] = read-out: EC50 (μM) H3N2 Perth/16/2009
[6] = read-out: EC50 (μM) H1N1 California/07/2009
[7] = CC50 (μM) H1N1 California/07/2009, Cell cytotoxicity (CC), run with H1N1 California/07/2009
[8] = CC50 (μM) H3N2 Perth/16/2009, Cell cytotoxicity (CC), run with H3N2 Perth/16/2009
[9] = CC50, run with Influenza A H1N1 California/07/2009, Neutral Red
[10] = CC50, run with Influenza A H1N1 California/07/2009, Visual
[11] = CC50, run with Influenza A H3N2 Perth/16/2006 (so in the source), Neutral Red
[12] = CC50, run with Influenza A H3N2 Perth/16/2006 (so in the source), Visual
[13] = CC50, MDCK cells, run with Influenza A H1N1 California/07/2009, Neutral Red
[14] = CC50, MDCK cells, run with Influenza A H1N1 California/07/2009, Visual

| Compound | EC50 (H3N2 Perth/16/2009 [1]; [5]) [µM] | EC50 (H1N1 California/07/2009 [2]; [6]) [µM] | EC50 (H1N1 California/07/2009 [3]; [6]) [µM] | EC50 (H3N2 Perth/16/2009 [4]; [5]) [µM] | CC50 (in vitro; [7]) [µM] | CC50 (in vitro; [8]) [µM] | CC50 (in vitro; [9]) [µM] | CC50 (in vitro; [10]) [µM] | CC50 (in vitro; [11]) [µM] | CC50 (in vitro; [12]) [µM] | CC50 (in vitro; [13]) [µM] | CC50 (in vitro; [14]) [µM] | also measured |
| --- | --- | --- | --- | --- | --- | --- | --- | --- | --- | --- | --- | --- | --- |
| CCCC[C@H](NC(C)=O)C(=O)N[C@@H](CC(=O)O)C(=O)N[C@H](C(=O)N[C@@H](CC(N)=O)C(=O)N[C@@]1(C)CCCC=CCCC[C@@](C)(C(=O)N[C@@H](CC(C)C)C(=O)N[C@@H](C)C(=O)N[C@H](C(=O)N[C@@H](CCC(N)=O)C(=O)N[C@@H](C)C(=O)NC(C)(C)C(=O)N[C@@H](C)C(=O)N[C@@H](C)C(N)=O)C(C)C)NC(=O)[C@H](CC(C)C)NC(=O)[C@H](CC(C)C)NC(=O)[C@H]([C@@H](C)O)NC1=O)C(C)C [SP-23] (Ac-[Nle]DVN[S5]TLL[S5]LAVQA[Aib]AA-NH2; staple 5-9) | 1.5 to 10 | 1.5 to 10 | 1.5 to 10 | 1.5 to 10 | > 100 | > 100 | > 100 | > 100 | > 100 | > 100 | – | – | EC50 (H1N1 California/07/2009 [2]; read-out: EC50): 4.3 µM; EC50 (H1N1 California/07/2009 [3]; read-out: EC50): 4.2 µM |
| CCCC[C@H](NC(C)=O)C(=O)N[C@@H](CC(=O)O)C(=O)N[C@H](C(=O)N[C@@H](CC(N)=O)C(=O)N[C@]1(C)CCCCCCC=CCCC[C@@](C)(C(=O)N[C@@H](C)C(=O)N[C@@H](C)C(=O)N[C@@H](CCC(N)=O)C(=O)N[C@@H](C)C(=O)N[C@@H](C)C(N)=O)NC(=O)[C@H](C)NC(=O)[C@H](CC(C)C)NC(=O)[C@H](Cc2ccccc2)NC(=O)[C@H](CC(C)C)NC(=O)[C@H](CC(C)C)NC(=O)[C@H]([C@@H](C)O)NC1=O)C(C)C [SP-24] (Ac-[Nle]DVN[R8]TLLFLA[S5]AAQAA-NH2; staple 5-12) | – | – | – | – | > 100 | > 100 | > 100 | > 100 | > 100 | > 100 | – | – | EC50 (H3N2 Perth/16/2009 [1]; Cytopathic effect/toxicity (Visual), MDCK cells, read-out: EC50 (μM) H3N2 Perth/16/2009): 1.5 to 10 µM; EC50 (H3N2 Perth/16/2009 [1]; Influenza A H3N2 Perth/16/2006 (so in the source), Drug Assay Visual, read-out: EC50): 2.5 µM; EC50 (H1N1 California/07/2009 [2]; Cytopathic effect/toxicity (Visual), MDCK cells, read-out: EC50 (μM) H1N1 California/07/2009): 1.5 to 10 µM; EC50 (H1N1 California/07/2009 [2]; Influenza A H1N1 California/07/2009, Drug Assay Visual, read-out: EC50): 4.3 µM; EC50 (H1N1 California/07/2009 [3]; Cytopathic effect/toxicity (Neutral red), MDCK cells, read-out: EC50 (μM) H1N1 California/07/2009): 1.5 to 10 µM; EC50 (H1N1 California/07/2009 [3]; Influenza A H1N1 California/07/2009, Drug Assay Neutral Red, read-out: EC50): 6.9 µM; EC50 (H3N2 Perth/16/2009 [4]; Cytopathic effect/toxicity (Neutral red), MDCK cells, read-out: EC50 (μM) H3N2 Perth/16/2009): 1.5 to 10 µM; EC50 (H3N2 Perth/16/2009 [4]; Influenza A H3N2 Perth/16/2006 (so in the source), Drug Assay Neutral Red, read-out: EC50): 3.4 µM |
| CCCC[C@H](NC(C)=O)C(=O)N[C@@H](CC(=O)O)C(=O)N[C@H](C(=O)N[C@@H](CC(N)=O)C(=O)N[C@@]1(C)CCCC=CCCC[C@@](C)(C(=O)N[C@@H](CC(C)C)C(=O)N[C@@H](C)C(=O)N[C@H](C(=O)N[C@@H](CCC(N)=O)C(=O)NC(C)(C)C(=O)N[C@@H](CCC(N)=O)C(=O)N[C@@H](C)C(=O)N[C@@H](C)C(N)=O)C(C)C)NC(=O)[C@H](CC(C)C)NC(=O)[C@H](CC(C)C)NC(=O)[C@H]([C@@H](C)O)NC1=O)C(C)C [SP-19] (Ac-[Nle]DVN[S5]TLL[S5]LAVQ[Aib]QAA-NH2; staple 5-9) | 1.5 to 10 | 1.5 to 10 | 1.5 to 10 | 1.5 to 10 | > 100 | > 100 | > 100 | > 100 | > 100 | > 100 | – | – | – |
| CCCC[C@H](NC(C)=O)C(=O)N[C@@H](CC(=O)O)C(=O)N[C@H](C(=O)N[C@@H](CC(N)=O)C(=O)N[C@@]1(C)CCCC=CCCC[C@@](C)(C(=O)N[C@@H](CC(C)C)C(=O)N[C@@H](C)C(=O)N[C@H](C(=O)NC(C)(C)C(=O)N[C@@H](C)C(=O)N[C@@H](CCC(N)=O)C(=O)N[C@@H](C)C(=O)N[C@@H](C)C(N)=O)C(C)C)NC(=O)[C@H](CC(C)C)NC(=O)[C@H](CC(C)C)NC(=O)[C@H]([C@@H](C)O)NC1=O)C(C)C [SP-7] (Ac-[Nle]DVN[S5]TLL[S5]LAV[Aib]AQAA-NH2; staple 5-9) | 25 to 50 | 10 to 25 | 10 to 25 | 25 to 50 | > 100 | > 100 | – | – | – | – | > 100 | > 100 | – |
| CCCC[C@H](NC(C)=O)C(=O)N[C@@H](CC(=O)O)C(=O)N[C@H](C(=O)N[C@@H](CC(N)=O)C(=O)N[C@@]1(C)CCCC=CCCC[C@@](C)(C(=O)N[C@@H](CC(C)C)C(=O)N[C@@H](C)C(=O)N[C@H](C(=O)N[C@@H](CCC(N)=O)C(=O)N[C@@H](C)C(=O)N[C@@H](CCC(N)=O)C(=O)NC(C)(C)C(=O)N[C@@H](C)C(N)=O)C(C)C)NC(=O)[C@H](CC(C)C)NC(=O)[C@H](CC(C)C)NC(=O)[C@H]([C@@H](C)O)NC1=O)C(C)C [SP-20] (Ac-[Nle]DVN[S5]TLL[S5]LAVQAQ[Aib]A-NH2; staple 5-9) | 1.5 to 10 | 10 to 25 | 25 to 50 | 1.5 to 10 | > 100 | > 100 | > 100 | > 100 | > 100 | > 100 | – | – | – |
| CCCC[C@H](NC(C)=O)C(=O)N[C@@H](CC(=O)O)C(=O)N[C@H](C(=O)N[C@@H](CC(N)=O)C(=O)N[C@@]1(C)CCCC=CCCC[C@@](C)(C(=O)N[C@@H](CC(C)C)C(=O)N[C@@H](CCCCN)C(=O)N[C@H](C(=O)N2CCC[C@H]2C(=O)NC(C)(C)C(=O)N[C@@H](CCC(N)=O)C(N)=O)C(C)C)NC(=O)[C@H](CC(C)C)NC(=O)[C@H](CC(C)C)NC(=O)[C@H]([C@@H](C)O)NC1=O)C(C)C [SP-3] (Ac-[Nle]DVN[S5]TLL[S5]LKVP[Aib]Q-NH2; staple 5-9) | 25 to 50 | > 50 | > 50 | > 50 | > 100 | > 100 | – | – | – | – | > 100 | > 100 | EC50 (H1N1 California/07/2009 [3]; read-out: EC50): > 100 µM and 73 µM |
| CCCC[C@H](NC(C)=O)C(=O)N[C@@H](CC(=O)O)C(=O)N[C@H](C(=O)N[C@@H](CC(N)=O)C(=O)N[C@@]1(C)CCCC=CCCC[C@@](C)(C(=O)N[C@@H](CC(C)C)C(=O)N[C@@H](CCCCN)C(=O)N[C@@H](C)C(=O)NC(C)(C)C(=O)N[C@@H](C)C(=O)N[C@@H](CCC(N)=O)C(N)=O)NC(=O)[C@H](CC(C)C)NC(=O)[C@H](CC(C)C)NC(=O)[C@H]([C@@H](C)O)NC1=O)C(C)C [SP-1] (Ac-[Nle]DVN[S5]TLL[S5]LKA[Aib]AQ-NH2; staple 5-9) | 25 to 50 | > 50 | 25 to 50 | 25 to 50 | > 100 | > 100 | – | – | – | – | > 100 | > 100 | – |
| CCCC[C@H](NC(C)=O)C(=O)N[C@@H](CC(=O)O)C(=O)N[C@H](C(=O)N[C@@H](CC(N)=O)C(=O)N[C@@]1(C)CCCC=CCCC[C@@](C)(C(=O)N[C@@H](CC(C)C)C(=O)N[C@@H](C)C(=O)N[C@H](C(=O)NC(C)(C)C(=O)N[C@@H](C)C(=O)N[C@@H](CCC(N)=O)C(=O)N[C@@H](C)C(=O)N[C@H](C)C(=O)O)C(C)C)NC(=O)[C@H](CC(C)C)NC(=O)[C@H](CC(C)C)NC(=O)[C@H]([C@@H](C)O)NC1=O)C(C)C [SP-17] (Ac-[Nle]DVN[S5]TLL[S5]LAV[Aib]AQA[dA]-OH; staple 5-9) | 10 to 25 | 25 to 50 | 25 to 50 | 10 to 25 | > 100 | > 100 | – | – | – | – | > 100 | > 100 | – |
| CCCC[C@H](NC(C)=O)C(=O)N[C@@H](CC(=O)O)C(=O)N[C@H](C(=O)N[C@@H](CC(N)=O)C(=O)N[C@@]1(C)CCCC=CCCC[C@@](C)(C(=O)N[C@@H](CC(C)C)C(=O)N[C@@H](C)C(=O)N[C@H](C(=O)NC(C)(C)C(=O)N[C@@H](C)C(=O)N[C@@H](CCC(N)=O)C(=O)N[C@@H](C)C(=O)N[C@H](C)C(N)=O)C(C)C)NC(=O)[C@H](CC(C)C)NC(=O)[C@H](CC(C)C)NC(=O)[C@H]([C@@H](C)O)NC1=O)C(C)C [SP-16] (Ac-[Nle]DVN[S5]TLL[S5]LAV[Aib]AQA[dA]-NH2; staple 5-9) | 25 to 50 | 10 to 25 | 10 to 25 | 25 to 50 | > 100 | > 100 | – | – | – | – | > 100 | > 100 | – |
